From patent US20080311092A1, “Murine Stem Cells and Applications Thereof” (priority 2005, published 2008)
“Also recorded” adds a separate entry of the source. Read-outs that look alike come from different tables or passages of the source.

Tests used:
CSC that express BCR-ABL = assay: Ganciclovir treatment of PLy6-HSVtk-IRES-BCRABLp210 (Sca1-IRES-HVTK-BCR-ABL p210) mice; type: in vivo, mouse; settings: for Disappearance of cancers / tumour burden on GCV treatment: PLy6-HSVtk-IRES-BCRABLp210 mice, 100% with tumours at start, 60 mice injected daily with GCV (100 mg/kg/day i.p.)
Procedure: PLy6-HSVtk-IRES-BCRABLp210 mice were used to test the effectiveness of GCV-induced cell death in CSC that express BCR-ABL. GCV, after preliminary testing, was administered at a dose of 100 mg/kg/day by i.p. injection for 14 days. This dose has been reported to kill cells expressing HSV-tk in transgenic mice (Bush TG. Cell 1998, 93: 189-201). Dosing started when the mice were leukaemic. A control group was given injections of normal saline.
(§1) Ganciclovir: stock solutions were prepared following the SIGMA indications. The regimen was 100 mg/kg/day by intraperitoneal injection for 14 days. The placebo was an equal volume of diluent water/normal saline.
30 mice were used as a control and were subjected daily with saline solution whereas the 60 remaining mice were injected daily with GCV as described in method section.
(§2) The mice were treated either with ganciclovir (GCV) or with placebo, as described under materials and methods. For each mouse model, 60 mice were injected daily with ganciclovir, and 30 mice were used as a control and injected daily with saline (placebo).

Sca1-positive cells = assay: Ganciclovir treatment of Sca1-BCL6-IRES-HVTK mice; type: in vivo, mouse
Procedure: as §1
CSC mouse cancer models (Sca1-HVTK-IRES-BCR-ABLp210 and Sca1-BCL6-IRES-HVTK mice) were used to address the question of whether the selective ablation of Sca1-positive cells is effective in the therapy of cancer.
as §2

human lung cancer = settings: humans; cited from earlier work
human lymphomas = settings: humans; cited from earlier work
[1] = test system: diffuse large B-cell lymphoma; assay: Doxorubicin treatment of Sca1/BCL6 cancer stem cell model mice, cell counting; type: in vivo, mouse
Procedure: DXR (doxorubicin) was dosed at 7 mg/kg. […] Drugs were dissolved in water and delivered intravenously. Water was used as placebo.

lung cancer = assay: Doxorubicin treatment of Sca1/hKRAS CSC model lung cancer mice, survival study; type: in vivo, mouse; settings: for Outcome of treatment in the lung cancer CSC mouse model: Sca1/hKRAS mice
Procedure: DXR (doxorubicin) was dosed at 7 mg/kg. The administration scheme was every 7th day, 3 times—q7dx3—for a duration of 4-5 weeks. Drugs were dissolved in water and delivered intravenously. Water was used as placebo.

human CML = settings: cited from earlier work; for Outcome of treatment in human CML: humans
[2] = test system: B cell acute lymphoblastic leukaemia (B-ALL); settings: BCR-ABLp210 mouse model, not stem-cell targeted; cited from earlier work

Nc1nc(O)c2ncn(COC(CO)CO)c2n1 [ganciclovir]
Tumour recurrence during further monitoring (CSC that express BCR-ABL; 8 weeks of further monitoring): did not recur | Time of treatment after which tumours disappeared completely (CSC that express BCR-ABL; 60 Sca1-IRES-HVTK-BCR-ABL p210 mice treated with ganciclovir): 8 weeks | Disappearance of cancers / tumour burden on GCV treatment (CSC that express BCR-ABL; listed as GCV): cancers disappeared completely | Disappearance of cancers / tumour burden on GCV treatment (CSC that express BCR-ABL; listed as Gancyclovir): complete reduction of tumour burden | Tumour recurrence (CML and solid tumours) after GCV treatment (CSC that express BCR-ABL; additional 3 months of observation after cancers disappeared): no tumour recurrence was observed | Time to elimination of all tumours (Sca1-positive cells; Sca1-BCL6-IRES-HVTK mice, 60 mice injected daily with ganciclovir): 10 weeks | Tumour recurrence during additional monitoring (Sca1-positive cells; additional 11 weeks of monitoring): no tumour recurrence was observed

COc1cccc2c1C(=O)c1c(O)c3c(c(O)c1C2=O)C[C@@](O)(C(=O)CO)C[C@@H]3O[C@H]1C[C@H](N)[C@H](O)[C@H](C)O1 [doxorubicin]
Outcome of treatment of human lung cancer (human lung cancer): unsuccessful | Outcome of treatment in human lymphoma / DLBCL patients (human lymphomas): virtually all human lymphoma patients treated with doxorubicin relapse | Outcome of treatment of diffuse large B-cell lymphoma in CSC mice ([1]; Sca1/BCL6 CSC mouse model): ineffective; also recorded: unsuccessful | Change in number of B cells ([1]; Sca1/BCL6 mice, 3-5 month course of doxorubicin treatment): decreased or increased slightly | Factor by which the number of CSC increased ([1]; Sca1/BCL6 mice, over three months of doxorubicin treatment): 7-8 | Survival: none of the treated mice survived longer than (lung cancer; CSC model lung cancer mice, doxorubicin 7 mg/kg i.v. q7dx3): ≤ 20 weeks | Outcome of treatment in the lung cancer CSC mouse model (lung cancer): ineffective; also recorded: unsuccessful | Outcome of treatment in the lung cancer CSC mouse model (lung cancer; listed as Doxorubicin): also unsuccessful

Cc1ccc(NC(=O)c2ccc(CN3CCN(C)CC3)cc2)cc1Nc1nccc(-c2cccnc2)n1 [Gleevec™, imatinib]
Effect on leukaemic stem cells in humans (human CML; Michor F et al. Nature (2005)): does not deplete leukaemic stem cells | Outcome of treatment in human CML (human CML): only gives symptomatic relief; also recorded: typically relapse | Outcome of treatment in human CML (human CML; listed as Gleevec): provides symptomatic relief | Outcome of treatment in conventional mouse B-ALL model [2]: cures the cancer
